Data: patent US7659305B2, “Therapeutic proline derivatives” (Pfizer Inc., priority 2002, dated 2010)
Where a name gives a salt, the structure may show the parent alone.

The compounds below were run against T1, α2δ subunit derived from porcine brain tissue (Sus scrofa, UniProt A0A287BIN3) (assay: radioligand binding assay using [3H]gabapentin). Settings: [3H]gabapentin binding.
T1 construct: the α2δ subunit derived from porcine brain tissue; from tissue; host or cells: porcine brain tissue
Description: The biological activity of the alpha-2-delta ligands of the invention may be measured in a radioligand binding assay using [^3H]gabapentin and the α2δ subunit derived from porcine brain tissue (Gee N. S., Brown J. P., Dissanayake V. U. K., Offord J., Thurlow R., Woodruff G. N., J. Biol. Chem., 1996;271:5879-[…]). Results may be expressed in terms of μM or nM α2δ binding affinity.

T1 sequence (A0A287BIN3 25-1109): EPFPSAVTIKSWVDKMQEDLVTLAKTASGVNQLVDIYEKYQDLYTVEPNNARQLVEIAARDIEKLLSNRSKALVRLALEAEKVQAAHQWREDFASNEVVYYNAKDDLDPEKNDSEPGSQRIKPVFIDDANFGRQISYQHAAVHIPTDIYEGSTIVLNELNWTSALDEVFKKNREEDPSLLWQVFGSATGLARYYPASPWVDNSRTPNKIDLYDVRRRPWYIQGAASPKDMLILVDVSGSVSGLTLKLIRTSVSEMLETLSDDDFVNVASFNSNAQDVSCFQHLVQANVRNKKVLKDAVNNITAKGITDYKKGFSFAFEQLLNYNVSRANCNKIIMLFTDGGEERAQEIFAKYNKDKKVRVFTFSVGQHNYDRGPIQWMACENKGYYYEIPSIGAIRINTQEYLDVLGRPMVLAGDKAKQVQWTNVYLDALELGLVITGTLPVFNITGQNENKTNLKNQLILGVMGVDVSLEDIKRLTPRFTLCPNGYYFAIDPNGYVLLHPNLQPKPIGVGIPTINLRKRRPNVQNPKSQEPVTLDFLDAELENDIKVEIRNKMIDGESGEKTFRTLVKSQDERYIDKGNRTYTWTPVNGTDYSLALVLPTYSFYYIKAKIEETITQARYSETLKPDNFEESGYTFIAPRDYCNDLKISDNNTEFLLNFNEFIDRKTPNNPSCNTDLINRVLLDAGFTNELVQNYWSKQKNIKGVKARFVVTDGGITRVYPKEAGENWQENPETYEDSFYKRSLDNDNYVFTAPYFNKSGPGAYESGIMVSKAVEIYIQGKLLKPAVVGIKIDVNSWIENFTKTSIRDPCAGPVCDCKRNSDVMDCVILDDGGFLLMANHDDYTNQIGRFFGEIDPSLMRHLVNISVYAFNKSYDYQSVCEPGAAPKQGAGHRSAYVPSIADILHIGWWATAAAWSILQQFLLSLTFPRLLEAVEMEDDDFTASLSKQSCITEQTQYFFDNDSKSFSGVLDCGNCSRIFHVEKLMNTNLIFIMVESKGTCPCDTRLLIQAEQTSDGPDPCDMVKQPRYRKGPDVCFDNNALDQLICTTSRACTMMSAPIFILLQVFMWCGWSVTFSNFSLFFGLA

IC50 [nM] | Structure (SMILES)
119 | O=C(O)[C@@H]1C[C@H](OCc2ccc(Cl)cc2)CN1 [Example 2, (2S,4S)-4-[(4-chlorobenzyl)oxyl]-pyrrolidine-2-carboxylic acid]
72 | O=C(O)[C@@H]1C[C@H](Sc2ccccc2)CN1 [Example 4, (2S,4S)-4-phenylthio-pyrrolidine-2-carboxylic acid]
210 | O=C(O)[C@@H]1C[C@H](Oc2ccc3ccncc3c2)CN1 [Example 7]
5 | O=C(O)[C@@H]1C[C@H](Oc2cccc(Cl)c2)CN1 [Example 8, (2S,4S)-4-(3-Chloro-phenoxy)-pyrrolidine-2-carboxylic acid]
11 | O=C(O)[C@@H]1C[C@H](Cc2cccc(F)c2)CN1 [Example 10, (2S,4S)-4-(3-Fluoro-benzyl)-pyrrolidine-2-carboxylic acid mono hydrochloride salt]
15 | O=C(O)[C@@H]1C[C@H](Cc2cccc(F)c2F)CN1 [Example 11, (2S,4S)-4-(2.3-Difluoro-benzyl)-pyrrolidine-2-carboxylic acid mono-hydrochloride salt]
7 | O=C(O)[C@@H]1C[C@H](Cc2cc(F)ccc2F)CN1 [Example 12, (2S,4S)-4-(2,5-Difluoro-benzyl)-pyrrolidine-2-carboxylic acid mono hydrochloride salt]
9 | COc1cccc(C[C@@H]2CN[C@H](C(=O)O)C2)c1 [Example 14, (2S,4S)-4-(3-Methoxy-benzyl)-pyrrolidine-2-carboxylic acid mono hydrochloride salt]
